In this assay the target is hSK3 (Homo sapiens, UniProt Q9UGI6). The assay can be described thus: Automated patch clamp (QPatch 16), whole cell, stable HEK293 cell line expressing hSK3. The format is cell-based. To be noted: HEK stable line, 400 nM free intracellular calcium, mean ± SEM, n = 9. As to the method:
Three different stable HEK293 cell lines expressing hSK1, hSK2 or hSK3 (NeuroSearch A/S, Ballerup, Denmark) and a CHO stable cell line expressing hERG (University of Copenhagen, Copenhagen, Denmark) were used for automated patch clamp. These cells were cultivated and prepared as previously described (Skarsfeldt et al., [2016]).
Automated patch clamp (QPatch 16, Sophion, Denmark) on SK-expressing HEK293 cell lines was conducted as previously described (Simó-Vicens et al., [2017b]). Briefly, SK currents were elicited by voltage-ramps starting at −80 mV and finishing at +80 mV from a holding potential of 0 mV. Extracellular solution contained 0.1 mM CaCl2, 3 mM MgCl2, 154 mM KCl, 10 mM HEPES and 10 mM glucose with pH 7.4. Intracellular solution for SK experiments contained 8.106 mM CaCl2 (final free calcium concentration of 400 nM), 1.167 mM MgCl2, 10 mM EGTA, 154 mM KCl, 10 mM HEPES, 31.25/ 10 mM KOH/EGTA and 15 mM KOH with pH 7.2. Automated patch clamp on hERG-expressing CHO cell line was performed also as previously described (Skarsfeldt et al., [2016]).
Individual IC50 values were calculated for each cell with the built-in nonlinear fit log(inhibitor) vs. normalized response equation:
Where Y is the normalized response, from 100, corresponding to current recorded during saline perfusion, down to 0, corresponding to currents recorded in the presence of bicuculline methiodide 100 μM. […]
(In general: Patch clamp records ionic current or voltage across a cell membrane.)

What is called IC50 is the concentration that gives 50% inhibition. In the case of `c1cc(-c2nc3ccccc3[nH]2)nc(-c2nc3ccccc3[nH]2)c1` [BBP, 2,6-Bis(2-benzimidazolyl)pyridine], the IC50 stood at 400 ± 200 nM.

The values are drawn from paper PMC6287599, “2,6-Bis(2-Benzimidazolyl)Pyridine (BBP) Is a Potent and Selective Inhibitor of Small Conductance Calcium-Activated Potassium (SK) Channels” (Frontiers in Pharmacology, 2018).
